In patent US11981658B2, “Substituted aminopyridine compounds as EGFR inhibitors” (YUHAN CORPORATION, priority 2021, dated 2024):
Read-outs that look alike come from different tables or passages of the source.

What was measured:
EGFR Del19/T790M/C797S = EGFR Del19/T790M/C797S (Homo sapiens, UniProt P00533, C797S/DEL746-750/T790M); assay: Biochemical EGFR kinase inhibition assay (Lance Ultra TR-FRET), triple mutant del19/T790M/C797S
Outline: (§1)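 Kinase activity is measured by TR-FRET phosphopeptide detection. Compounds span 0.003 μM to 10 μM; the 1 h reaction at room temperature is quenched with EDTA, then labelled antibody (2 nM) is incubated 60 min before reading.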

EGFR L858R/T790M/C797S = EGFR L858R/T790M/C797S (Homo sapiens, UniProt P00533, C797S/L858R/T790M); assay: Biochemical EGFR kinase inhibition assay (Lance Ultra TR-FRET), triple mutant L858R/T790M/C797S
Chain of EGFR L858R/T790M/C797S (P00533 25-1210 T790M/C797S/L858R): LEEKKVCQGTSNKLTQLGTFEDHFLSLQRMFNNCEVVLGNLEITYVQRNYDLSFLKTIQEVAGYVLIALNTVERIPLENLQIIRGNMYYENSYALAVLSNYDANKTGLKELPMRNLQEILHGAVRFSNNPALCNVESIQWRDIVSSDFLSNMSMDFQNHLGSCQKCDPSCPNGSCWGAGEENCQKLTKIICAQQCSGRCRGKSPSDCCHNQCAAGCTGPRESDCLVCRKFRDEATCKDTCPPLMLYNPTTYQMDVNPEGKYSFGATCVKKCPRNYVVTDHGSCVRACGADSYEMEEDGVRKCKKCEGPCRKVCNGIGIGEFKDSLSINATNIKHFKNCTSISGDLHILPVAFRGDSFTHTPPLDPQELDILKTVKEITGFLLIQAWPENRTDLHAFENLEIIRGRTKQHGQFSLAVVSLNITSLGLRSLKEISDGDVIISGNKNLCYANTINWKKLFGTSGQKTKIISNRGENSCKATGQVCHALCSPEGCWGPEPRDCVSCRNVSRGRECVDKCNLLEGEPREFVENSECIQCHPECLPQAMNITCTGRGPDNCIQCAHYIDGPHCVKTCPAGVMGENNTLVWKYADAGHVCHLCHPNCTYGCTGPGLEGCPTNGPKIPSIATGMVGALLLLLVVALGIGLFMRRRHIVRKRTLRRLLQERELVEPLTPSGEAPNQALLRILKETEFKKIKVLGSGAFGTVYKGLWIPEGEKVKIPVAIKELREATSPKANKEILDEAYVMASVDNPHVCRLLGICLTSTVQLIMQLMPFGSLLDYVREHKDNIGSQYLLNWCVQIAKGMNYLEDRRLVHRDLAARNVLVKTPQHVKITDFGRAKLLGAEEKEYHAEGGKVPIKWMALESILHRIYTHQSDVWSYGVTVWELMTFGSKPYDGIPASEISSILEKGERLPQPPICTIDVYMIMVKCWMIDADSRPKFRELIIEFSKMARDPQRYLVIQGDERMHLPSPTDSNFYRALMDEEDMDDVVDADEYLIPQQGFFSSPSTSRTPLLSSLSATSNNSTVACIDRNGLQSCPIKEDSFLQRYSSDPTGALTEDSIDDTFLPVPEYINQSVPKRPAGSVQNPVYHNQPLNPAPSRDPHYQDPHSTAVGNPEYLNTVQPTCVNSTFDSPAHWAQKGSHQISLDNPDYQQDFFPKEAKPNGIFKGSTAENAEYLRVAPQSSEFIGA
Outline: as §1

EGFR Del19/C797S = EGFR Del19/C797S (Homo sapiens, UniProt P00533, C797S/DEL746-750); assay: Biochemical EGFR kinase inhibition assay (Lance Ultra TR-FRET), double mutant del19/C797S
Outline: as §1

EGFR L858R/C797S = EGFR L858R/C797S (Homo sapiens, UniProt P00533, C797S/L858R); assay: Biochemical EGFR kinase inhibition assay (Lance Ultra TR-FRET), double mutant L858R/C797S
Chain of EGFR L858R/C797S (P00533 25-1210 C797S/L858R): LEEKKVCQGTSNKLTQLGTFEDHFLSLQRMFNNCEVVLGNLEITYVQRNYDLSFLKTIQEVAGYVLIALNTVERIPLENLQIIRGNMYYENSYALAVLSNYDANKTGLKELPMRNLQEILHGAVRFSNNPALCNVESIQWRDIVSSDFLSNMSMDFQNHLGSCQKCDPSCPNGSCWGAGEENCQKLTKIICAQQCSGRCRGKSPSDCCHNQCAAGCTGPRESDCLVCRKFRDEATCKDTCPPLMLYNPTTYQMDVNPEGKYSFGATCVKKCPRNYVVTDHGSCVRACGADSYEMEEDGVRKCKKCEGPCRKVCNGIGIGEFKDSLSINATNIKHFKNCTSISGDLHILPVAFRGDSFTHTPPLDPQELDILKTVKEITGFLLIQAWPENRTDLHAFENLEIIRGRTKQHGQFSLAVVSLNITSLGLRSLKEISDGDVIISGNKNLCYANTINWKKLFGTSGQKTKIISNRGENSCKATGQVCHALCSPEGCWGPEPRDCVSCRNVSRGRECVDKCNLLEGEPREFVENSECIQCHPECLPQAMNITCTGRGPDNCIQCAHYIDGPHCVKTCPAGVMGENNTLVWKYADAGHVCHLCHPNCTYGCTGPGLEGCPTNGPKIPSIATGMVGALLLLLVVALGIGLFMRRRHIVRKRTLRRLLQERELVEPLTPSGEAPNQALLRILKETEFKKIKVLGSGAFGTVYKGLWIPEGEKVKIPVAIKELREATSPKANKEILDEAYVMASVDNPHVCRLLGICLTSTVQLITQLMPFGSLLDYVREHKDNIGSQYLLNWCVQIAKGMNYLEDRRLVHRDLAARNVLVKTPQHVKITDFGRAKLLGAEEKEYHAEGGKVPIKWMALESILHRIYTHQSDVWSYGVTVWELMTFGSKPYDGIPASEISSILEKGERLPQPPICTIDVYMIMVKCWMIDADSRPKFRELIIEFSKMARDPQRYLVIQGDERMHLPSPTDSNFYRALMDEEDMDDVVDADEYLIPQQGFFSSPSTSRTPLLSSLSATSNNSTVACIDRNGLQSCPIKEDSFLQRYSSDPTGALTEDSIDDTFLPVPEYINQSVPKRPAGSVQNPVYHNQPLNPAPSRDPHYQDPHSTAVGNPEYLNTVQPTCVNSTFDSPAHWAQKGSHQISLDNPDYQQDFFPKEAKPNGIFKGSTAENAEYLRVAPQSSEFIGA
Outline: as §1

EGFR wildtype (WT) = EGFR wildtype (WT) (Homo sapiens, UniProt P00533); assay: Biochemical EGFR kinase inhibition assay (Lance Ultra TR-FRET), wildtype
Chain of EGFR wildtype (WT) (P00533 25-1210): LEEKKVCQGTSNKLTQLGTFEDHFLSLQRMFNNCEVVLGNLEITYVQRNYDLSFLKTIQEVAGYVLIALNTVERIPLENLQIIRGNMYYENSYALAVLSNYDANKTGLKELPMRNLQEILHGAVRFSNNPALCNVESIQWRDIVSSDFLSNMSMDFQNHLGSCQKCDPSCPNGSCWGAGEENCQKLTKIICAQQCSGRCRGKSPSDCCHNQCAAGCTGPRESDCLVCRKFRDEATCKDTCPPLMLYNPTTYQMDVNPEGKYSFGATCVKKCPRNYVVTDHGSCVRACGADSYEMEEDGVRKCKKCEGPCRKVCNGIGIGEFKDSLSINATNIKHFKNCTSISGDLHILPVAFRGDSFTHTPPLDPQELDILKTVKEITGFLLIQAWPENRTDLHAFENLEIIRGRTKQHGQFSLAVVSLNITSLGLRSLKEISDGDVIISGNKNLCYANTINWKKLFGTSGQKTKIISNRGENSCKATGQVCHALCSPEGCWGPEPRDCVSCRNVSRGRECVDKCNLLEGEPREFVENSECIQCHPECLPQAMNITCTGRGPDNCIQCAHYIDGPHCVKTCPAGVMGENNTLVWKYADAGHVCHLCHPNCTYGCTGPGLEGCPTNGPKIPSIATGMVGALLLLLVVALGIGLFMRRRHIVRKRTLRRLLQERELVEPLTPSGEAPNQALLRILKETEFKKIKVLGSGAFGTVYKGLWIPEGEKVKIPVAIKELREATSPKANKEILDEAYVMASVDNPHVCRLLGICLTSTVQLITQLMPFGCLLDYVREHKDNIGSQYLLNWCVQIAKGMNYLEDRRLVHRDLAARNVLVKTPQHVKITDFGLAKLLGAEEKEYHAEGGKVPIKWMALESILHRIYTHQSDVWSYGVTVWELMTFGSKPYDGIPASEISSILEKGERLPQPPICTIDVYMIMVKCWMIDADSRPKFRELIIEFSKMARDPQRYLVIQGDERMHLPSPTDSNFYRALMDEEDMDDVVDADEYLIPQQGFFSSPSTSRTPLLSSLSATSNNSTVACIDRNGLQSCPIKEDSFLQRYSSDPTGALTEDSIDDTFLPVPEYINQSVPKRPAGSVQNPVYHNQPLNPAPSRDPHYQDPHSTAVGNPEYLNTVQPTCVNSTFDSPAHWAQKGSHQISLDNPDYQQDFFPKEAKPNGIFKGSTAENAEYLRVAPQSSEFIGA
Outline: as §1

[1] = IC50 Del19/T790M/C797S (nM), 100 μM ATP
[2] = IC50 L858R/T790M/C797S (nM), 100 μM ATP
[3] = IC50 Del19/C797S (nM), 100 μM ATP
[4] = IC50 L858R/C797S (nM), 100 μM ATP
[5] = Km ATP, read-out: IC50 Del19/T790M/C797S (nM) Km ATP
[6] = Km ATP, read-out: IC50 L858R/T790M/C797S (nM) Km ATP
[7] = Km ATP, read-out: IC50 Del19/C797S (nM) Km ATP
[8] = Km ATP, read-out: IC50 L858R/C797S (nM) Km ATP
[9] = Km ATP, read-out: IC50 WT (nM) Km ATP

Chain of EGFR Del19/T790M/C797S (P00533 with tags, fused parts or gaps DEL746-750/T790M/C797S): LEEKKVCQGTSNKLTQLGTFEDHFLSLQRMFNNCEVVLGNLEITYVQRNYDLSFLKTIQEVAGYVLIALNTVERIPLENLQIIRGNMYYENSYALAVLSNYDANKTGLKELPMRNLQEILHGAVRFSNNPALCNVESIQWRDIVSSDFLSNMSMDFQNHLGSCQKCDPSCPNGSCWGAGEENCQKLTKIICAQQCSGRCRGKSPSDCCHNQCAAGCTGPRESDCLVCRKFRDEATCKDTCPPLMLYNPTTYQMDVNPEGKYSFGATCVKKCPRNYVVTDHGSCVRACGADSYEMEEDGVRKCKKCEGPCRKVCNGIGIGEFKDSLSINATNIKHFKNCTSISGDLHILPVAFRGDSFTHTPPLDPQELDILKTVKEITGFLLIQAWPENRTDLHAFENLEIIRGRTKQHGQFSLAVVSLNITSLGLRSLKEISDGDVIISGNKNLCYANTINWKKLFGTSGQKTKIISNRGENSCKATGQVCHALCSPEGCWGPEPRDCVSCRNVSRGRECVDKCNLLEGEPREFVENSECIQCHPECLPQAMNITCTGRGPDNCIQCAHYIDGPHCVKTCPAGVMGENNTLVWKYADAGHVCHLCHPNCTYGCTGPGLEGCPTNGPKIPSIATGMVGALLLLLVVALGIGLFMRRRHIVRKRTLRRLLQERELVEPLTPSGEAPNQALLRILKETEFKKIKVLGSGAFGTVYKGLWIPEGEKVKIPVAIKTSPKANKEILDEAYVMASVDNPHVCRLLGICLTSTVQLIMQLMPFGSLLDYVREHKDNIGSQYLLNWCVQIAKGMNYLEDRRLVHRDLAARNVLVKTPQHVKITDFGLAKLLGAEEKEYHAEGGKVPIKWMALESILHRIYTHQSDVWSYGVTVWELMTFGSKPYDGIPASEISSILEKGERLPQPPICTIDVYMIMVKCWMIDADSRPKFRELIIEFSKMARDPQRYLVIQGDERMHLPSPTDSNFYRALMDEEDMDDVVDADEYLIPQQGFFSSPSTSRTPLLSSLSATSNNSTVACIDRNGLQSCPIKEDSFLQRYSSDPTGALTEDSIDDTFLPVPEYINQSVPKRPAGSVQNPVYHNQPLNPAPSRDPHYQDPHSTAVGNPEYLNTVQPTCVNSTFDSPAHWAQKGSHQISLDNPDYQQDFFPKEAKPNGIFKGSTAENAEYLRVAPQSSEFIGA

IC50 (EGFR Del19/T790M/C797S; [1]) [nM] | IC50 (EGFR L858R/T790M/C797S; [2]) [nM] | IC50 (EGFR Del19/C797S; [3]) [nM] | IC50 (EGFR L858R/C797S; [4]) [nM] | IC50 (EGFR wildtype (WT); IC50 WT (nM), 100 μM ATP) [nM] | IC50 (EGFR Del19/T790M/C797S; [5]) [nM] | IC50 (EGFR L858R/T790M/C797S; [6]) [nM] | IC50 (EGFR Del19/C797S; [7]) [nM] | IC50 (EGFR L858R/C797S; [8]) [nM] | IC50 (EGFR wildtype (WT); [9]) [nM] | SMILES
1.5 | 8.9 | 44.8 | 97.6 | > 10000 |  |  |  |  |  | O=S(=O)(C1CC1)n1cc(-c2nccc(Nc3cc(N4CCC(O)CC4)c(C#Cc4csc(CF)n4)cn3)n2)cn1 [Example 212, 1-(2-((2-(1-(Cyclopropylsulfonyl)-1H-pyrazol-4-yl)pyrimidin-4-yl)amino)-5-((2-(fluoromethyl)thiazol-4-yl)ethynyl)pyridin-4-yl)piperidin-4-ol]
1.6 | 2 | 2.3 | 4.1 | 1040 | 1.5 | 0.9 | 2.7 | 1.4 | 5 | CC1(CO)CCN(c2cc(Nc3ccnc(-c4cnn(S(=O)(=O)C5CC5)c4)n3)ncc2C#Cc2cnn(C3CCOCC3)c2)CC1 [Example 95, (1-(2-((2-(1-(Cyclopropylsulfonyl)-1H-pyrazol-4-yl)pyrimidin-4-yl)amino)-5-((1-(tetrahydro-2H-pyran-4-yl)-1H-pyrazol-4-yl)ethynyl)pyridin-4-yl)-4-methylpiperidin-4-yl)methanol]
13.3 | 27.7 | 181 | 209 | > 10000 |  |  |  |  |  | Cn1cc(C#Cc2cnc(Nc3ccnc(-c4cnn(S(=O)(=O)C5CC5)c4)n3)cc2N2CCC(OC(F)(F)F)CC2)cn1 [Example 67, 2-(1-(Cyclopropylsulfonyl)-1H-pyrazol-4-yl)-N-(5-((1-methyl-1H-pyrazol-4-yl)ethynyl)-4-(4-(trifluoromethoxy)piperidin-1-yl)pyridin-2-yl)pyrimidin-4-amine]
2.6 | 5.2 | 3 | 40.6 | > 10000 | 0.7 | 0.6 | 1.6 | 4.1 | 28.7 | Cn1cc(C#Cc2cnc(Nc3ccnc(-c4cnn(S(=O)(=O)C5CC5)c4)n3)cc2N2CCC(NCC(F)(F)F)CC2)cn1 [Example 135, 2-(1-(Cyclopropylsulfonyl)-1H-pyrazol-4-yl)-N-(5-((1-methyl-1H-pyrazol-4-yl)ethynyl)-4-(4-((2,2,2-trifluoroethyl)amino)piperidin-1-yl)pyridin-2-yl)pyrimidin-4-amine]
1.1 | 12.6 | 38.6 | 103 | > 10000 |  |  |  |  |  | C[C@H](CCO)Nc1cc(Nc2ccnc(-c3cnn(S(=O)(=O)C4CC4)c3)n2)ncc1C#Cc1cnn(C)c1 [Example 4, (R)-3-((2-((2-(1-(Cyclopropylsulfonyl)-1H-pyrazol-4-yl)pyrimidin-4-yl)amino)-5-((1-methyl-1H-pyrazol-4-yl)ethynyl)pyridin-4-yl)amino)butan-1-ol]
1.5 | 2.8 | 5.2 | 17.1 | > 10000 | 1.5 | 1.1 | 4.6 | 2.8 | 21.3 | CC(=O)N1CCC(n2cc(C#Cc3cnc(Nc4ccnc(-c5cnn(S(=O)(=O)C6CC6)c5)n4)cc3N3CCC(F)CC3)cn2)CC1 [Example 112, 1-(4-(4-((6-((2-(1-(Cyclopropylsulfonyl)-1H-pyrazol-4-yl)pyrimidin-4-yl)amino)-4-(4-fluoropiperidin-1-yl)pyridin-3-yl)ethynyl)-1H-pyrazol-1-yl)piperidin-1-yl)ethan-1-one]
4.7 | 5.8 | 56.7 | 72.8 | > 10000 |  |  |  |  |  | CN(C)CC1(O)CCN(c2cc(Nc3ccnc(-c4cnn(S(=O)(=O)C5CC5)c4)n3)ncc2C#Cc2cnn(C3CC3)c2)CC1 [Example 316, 1-(5-((1-Cyclopropyl-1H-pyrazol-4-yl)ethynyl)-2-((2-(1-(cyclopropylsulfonyl)-1H-pyrazol-4-yl)pyrimidin-4-yl)amino)pyridin-4-yl)-4-((dimethylamino)methyl)piperidin-4-ol]
